In the NIST ThermoML archive (doi:10.1021/acs.jced.6b00587):

Conditions: Liquid, Ebulliometric method (Recirculating still)

CCCCOCC [butyl ethyl ether]
Conditions	vapor or sublimation pressure [kPa]
336.22 K	38.6
340.35 K	44.96
344.21 K	51.67
346.8 K	56.24
348.84 K	60
350.44 K	63.63
354.01 K	71.58
357.31 K	79.6
361.44 K	90.59
363.47 K	96.36
365.25 K	101.3

CCCOCCC [dipropyl ether]
Conditions	vapor or sublimation pressure [kPa]
326.73 K	29.35
332.57 K	36.71
336.55 K	42.54
341.15 K	49.98
345.34 K	57.75
346.55 K	60
346.63 K	60
347.55 K	62.3
352.11 K	72.36
354.82 K	78.97
356.85 K	84.25
358.73 K	89.3
361.18 K	96.32
362.87 K	101.3

CCCCCCC [heptane]
Conditions	vapor or sublimation pressure [kPa]
331.39 K	26.15
335.45 K	30.59
341.94 K	38.89
347.16 K	46.8
349.68 K	50.97
352.58 K	56.2
354.63 K	60
356.78 K	64.6
359.38 K	70.24
362.11 K	76.47
364.95 K	83.45
366.87 K	88.4
371.28 K	101.3
